Tests used:
Test in all cases: Test D
FALL PANICUM = type: in vivo, Panicum dichotomiflorum
LAMBSQUARTER = type: in vivo, Chenopodium album
JIMSONWEED = type: in vivo, Datura stramonium
GREEN FOXTAIL = type: in vivo, Setaria viridis
WILLMS SOYBEANS = type: in vivo, Glycine max
COCKLEBUR = type: in vivo, Xanthium pensylvanicum

SMILES	plant response (FALL PANICUM; PREEMERGENCE 0064 GM/HA) [%]	plant response (FALL PANICUM; PREEMERGENCE 0125 GM/HA) [%]	plant response (FALL PANICUM; PREEMERGENCE 0250 GM/HA) [%]	plant response (FALL PANICUM; PREEMERGENCE 0500 GM/HA) [%]	plant response (LAMBSQUARTER; POSTEMERGENCE 0250 GM/HA) [%]	plant response (LAMBSQUARTER; POSTEMERGENCE 0500 GM/HA) [%]	plant response (LAMBSQUARTER; PREEMERGENCE 0064 GM/HA) [%]	plant response (LAMBSQUARTER; PREEMERGENCE 0125 GM/HA) [%]	plant response (LAMBSQUARTER; PREEMERGENCE 0250 GM/HA) [%]	plant response (LAMBSQUARTER; PREEMERGENCE 0500 GM/HA) [%]	plant response (JIMSONWEED; POSTEMERGENCE 0250 GM/HA) [%]	plant response (JIMSONWEED; POSTEMERGENCE 0500 GM/HA) [%]	plant response (JIMSONWEED; PREEMERGENCE 0064 GM/HA) [%]	plant response (JIMSONWEED; PREEMERGENCE 0125 GM/HA) [%]	plant response (JIMSONWEED; PREEMERGENCE 0250 GM/HA) [%]	plant response (JIMSONWEED; PREEMERGENCE 0500 GM/HA) [%]	plant response (GREEN FOXTAIL; POSTEMERGENCE 0250 GM/HA) [%]	plant response (GREEN FOXTAIL; POSTEMERGENCE 0500 GM/HA) [%]	plant response (GREEN FOXTAIL; PREEMERGENCE 0064 GM/HA) [%]	plant response (GREEN FOXTAIL; PREEMERGENCE 0125 GM/HA) [%]	other results
C=C(c1ccccc1)C(O)(Cn1cncn1)c1ccc(Cl)cc1Cl (stereo not shown) [Example 50, 2-(2,4-Dichlorophenyl)-3-phenyl-1-(1H-1,2,4-triazol-1-yl)-3-buten-2-ol]	20	35	60	95	65	80	0	35	75	90	20	45	0	25	50	70	0	0	0	30	plant response (FALL PANICUM; POSTEMERGENCE 0250 GM/HA): 20%; plant response (FALL PANICUM; POSTEMERGENCE 0500 GM/HA): 35%; plant response (GREEN FOXTAIL; PREEMERGENCE 0250 GM/HA): 50%; plant response (GREEN FOXTAIL; PREEMERGENCE 0500 GM/HA): 85%; plant response (WILLMS SOYBEANS; POSTEMERGENCE 0250 GM/HA): 35%; plant response (WILLMS SOYBEANS; POSTEMERGENCE 0500 GM/HA): 65%; plant response (WILLMS SOYBEANS; PREEMERGENCE 0064 GM/HA): 0%; plant response (WILLMS SOYBEANS; PREEMERGENCE 0125 GM/HA): 0%; plant response (WILLMS SOYBEANS; PREEMERGENCE 0250 GM/HA): 0%; plant response (WILLMS SOYBEANS; PREEMERGENCE 0500 GM/HA): 20%; plant response (COCKLEBUR; POSTEMERGENCE 0250 GM/HA): 25%; plant response (COCKLEBUR; POSTEMERGENCE 0500 GM/HA): 40%; plant response (COCKLEBUR; PREEMERGENCE 0064 GM/HA): 0%; plant response (COCKLEBUR; PREEMERGENCE 0125 GM/HA): 0%; plant response (COCKLEBUR; PREEMERGENCE 0250 GM/HA): 0%; plant response (COCKLEBUR; PREEMERGENCE 0500 GM/HA): 25%
C=C(c1ccccc1Cl)C(O)(Cn1cncn1)c1ccc(F)cc1F (stereo not shown) [Example 35]	0	50	80	100	0	20	30	30	60	80	20	20	0	0	80	30	0	40	30	70	plant response (GREEN FOXTAIL; PREEMERGENCE 0250 GM/HA): 80%; plant response (GREEN FOXTAIL; PREEMERGENCE 0500 GM/HA): 100%; plant response (WILLMS SOYBEANS; POSTEMERGENCE 0250 GM/HA): 10%; plant response (WILLMS SOYBEANS; POSTEMERGENCE 0500 GM/HA): 30%; plant response (WILLMS SOYBEANS; PREEMERGENCE 0064 GM/HA): 0%; plant response (WILLMS SOYBEANS; PREEMERGENCE 0125 GM/HA): 0%; plant response (WILLMS SOYBEANS; PREEMERGENCE 0250 GM/HA): 0%; plant response (WILLMS SOYBEANS; PREEMERGENCE 0500 GM/HA): 0%; plant response (COCKLEBUR; POSTEMERGENCE 0250 GM/HA): 0%; plant response (COCKLEBUR; POSTEMERGENCE 0500 GM/HA): 30%; plant response (COCKLEBUR; PREEMERGENCE 0064 GM/HA): 0%; plant response (COCKLEBUR; PREEMERGENCE 0125 GM/HA): 0%; plant response (COCKLEBUR; PREEMERGENCE 0250 GM/HA): 0%; plant response (COCKLEBUR; PREEMERGENCE 0500 GM/HA): 20%

Reference: US4965280A, “Antifungal carbinols” (E. I. Du Pont de Nemours and Company, priority 1989, dated 1990)
